Data reported in patent publication US5795857A, “Mimetic insect pyrokinin analogs for insect control” (The United States of America as represented by the …, priority 1996, dated 1998).
Entries after “also recorded” stand apart in the source; their conditions may differ. Residues, ends and D or L forms follow the SMILES beside them. No end group written: not given here. *: point of attachment. Hexanoyl(6-Ph) = O=C(CCCCCc1ccccc1)*

Assays:
[1] = tested on: virgin females of Heliothis virescens; assay: Pheromonotropic assay (injection); assay type: in vivo; conditions: 0.06-200 pmol, 60 min after injection, FIG. 5
Experimental: Pupae of H. virescens were obtained from a laboratory colony maintained at the Insect Attractants, Behavior and Basic Biology Research Laboratory, USDA-ARS, in Gainesville, Fla. The pupae were separated by sex and the males were discarded. After eclosion, the females were held in 4-1 cages and provided with cotton wicks soaked with 5% sucrose solution. The insects were held at 25°±2° C, 65±3% relative humidity with a 12:12 (L:D) photoperiod. Virgin females were used for bioassays 2 and 3 days after eclosion during the 7th-8th hour of the photophase when endogenous levels of pheromone are very low (Abernathy, 1995, Regulation of sex pheromone production and oviposition in virgin females of noctuid moths, doctoral dissertation, University of Florida, Gainesville, Fla., pp. 1-107).
Pheromone biosynthesis neuropeptide from H. zea (Hez--PBAN) and the carboranyl pseudopeptide Cbe--Thr--Pro--Arg--Leu--NH2 were dissolved in physiological saline (Christensen et al., 1991, Proc. Natl. Acad. Sci. USA, 88:4971-4975). Female H. virescens insects were injected through the side of the third abdominal segment using a 26-ga needle with 20 μl of the above solutions. Each female received a dose of 0.01, 0.03, 0.1, 0.3, 1, 3, 10, 30, 100 or 300 pmol. After 1 h of incubation, the terminal abdominal segments, which contain the pheromone gland, were excised and placed in 10 μl of hexane containing 10 ng each of internal standards (octadecane and nonadecane) used for quantitation and calculation of relative retention indices. The pheromone gland extracts were analyzed for the amount of (Z)-11-hexadecenal (Z11-16:AL), the major sex pheromone component of H. virescens (Klun et al., 1980, J. Chem. Ecol., 6:165-175) by capillary gas chromatography. Hewlett-Packard 5890 gas chromatographs were equipped with splitless injectors, flame ionization detectors, and 30 m×0.25 mm (i.d.) fused silica "SPB 10" (polar) or "SPB1" (apolar) columns (Supelco). Conditions of chromatography were as follows: initial temperature=60° C.; injector operated in the splitless mode for 0.5 min; oven temperature increased by 30° C./min after 1 min; final temperature=190° C. ("SPB10") or 200° C. ("SPB1"); helium carrier gas at a linear flow velocity of 18 cm/s. A Nelson Analytical 3000° acquisition system (Cupertino, Calif.) was used to collect and analyze the data (Teal et al., 1989, Proc. Natl. Acad. Sci. USA, 86:2488-2492).
After the dose response of Hez--PBAN was completed, the […] dose was chosen to use for comparison with the carboranyl pseudopeptide assayed here. Insects were also injected with saline alone as a control. The pseudopeptide was prepared by dilution with saline as described above. Based on the dose-response for the activity of Hez--PBAN, […] were chosen to assess the pheromonotropic activity of the carboranyl pseudopeptide. Females were injected with 20 μl containing 0.01, 0.03, 0.1, 0.3, 1, 3, 10, 30, 100, or 300 pmol. Each bioassay consisted of one dose of several different peptides along with saline and Hez--PBAN controls. The amount of pheromone present in extracts of the pheromone glands of females from each group was compared with that produced by females injected with 5 pmol of Hez--PBAN during that particular bioassay. After all the bioassays were completed, the amount of pheromone produced by each insect was calculated as a percentage of the amount of pheromone produced by females treated with Hez--PBAN. Data were analyzed using one-way ANOVA and t-test with "STATVIEW" software. Variability was reported as SEM.
The pheromonotropic activity of Hez--PBAN, Lom--MT--II and [6--Pha--Ala^0 ]Lom--MT--II was first determined by a series of injection bioassays. Peptides were dissolved in physiological saline (Christensen et al., ibid) and diluted to concentrations of 0.003, 0.01, 0.03, 0.1, 0.3, 1.0, 3.0 and 10.0 pmol/μl. Insects were injected through the side of the 3rd abdominal segment using a 26 ga. needle with 20 μl of the above solutions. […]

[2] = tested on: virgin females of Heliothis virescens; assay: Pheromonotropic assay (topical application); assay type: in vivo; conditions: for pheromone production, topical 500 pmol/female in 80% acetonitrile: 80% acetonitrile in water; for pheromone production, topical 500 pmol/female in 80% acetonitrile / pheromone production, topical 500 pmol/female in DMSO / pheromone production, topical 500 pmol/female in water: FIG. 7; for pheromone production after topical application in DMSO: descaled cuticle
Experimental: The amphiphilic carboranyl analog Cbe--Thr--Pro--Arg--Leu--NH2 was dissolved in water and solutions at concentrations of 5, 10, 25, 60, and 200 pmol/μl were prepared. The cuticular scales along the lateral side of the abdomen were removed with a 1 ml plastic pipet tip attached to house vacuum with a rubber hose. A low vacuum was applied to the apparatus and the pipet tip was gently passed over the cuticle until the scales were drawn by suction. After the scales were removed, 1 μl of peptide solution was applied to the surface of the cuticle and smoothed evenly over the prepared surface. […]
Pupae of Heliothis virescens were obtained from a laboratory colony maintained at the Insect Attractants Behavior and Basic Biology Research Laboratory, USDA-ARS, Gainesville, Fla. The pupae were separated by sex and the females were held in 4-1 cages. Cages were inspected daily for newly eclosed adults which were transferred to new cages and provided with cotton wicks soaked with a 5% sucrose solution. The insects were held at 25°[…] C. and 65%±3% relative humidity with a 12:12 (L:D) photoperiod. Virgin females were used for bioassays 2 and 3 days after eclosion during the 7th-8th hour of the photophase when little or no pheromone is present in the gland (Teal et al., 1993, Can. Entomol., 153:355-366). The cuticular scales were removed from the lateral side of the abdomen using a plastic pipet tip attached to house vacuum using a rubber hose. A low vacuum was applied and the pipet tip was passed gently over the cuticle until the scales were drawn off by suction. Insects were returned to the incubator for 24 h after the scales were removed for most experiments. However, insects were not given a recovery period in studies in which peptides were applied in DMSO (see below).
In initial studies we used dimethyl sulfoxide (DMSO) as a carrier to deliver Hez--PBAN or [6--Pha--Ala^0 ]Lom--MT--II for topical applications. […] We also assessed different carrier solvents for their ability to deliver these two peptides. Peptides were dissolved at a concentration of 500 pmol/μl in: DMSO, water, or 80% acetonitrile:20% water. Solutions were applied to the descaled abdomen in 1 μl of solvent as above. The insects were allowed to incubate for 1 h prior to excision and extraction of the pheromone gland. Extracts were analyzed for the amount of pheromone as above.
The use of water as a carrier for [6--Pha--Ala^0 ]Lom--MT--II was also assessed in dose response and temporal activity studies. For dose response studies [6--Pha--Ala^0 ]Lom--MT--II was dissolved in water at concentrations of 5, 10, 25, 50, 75, 100, 250, 500, 750 and 1000 pmol/μl. Insects were incubated for 60 min after application of 1 μl of solution to the descaled abdomen. In temporal activity studies a 100 pmol/μl dose was selected. For these experiments insects were incubated for periods of 15, 30, 60, 120, or 180 min after application of 1 μl of solution to the descaled abdomen. The ability of the parent peptide, Lom--MT--II, to stimulate pheromone production when applied topically in water was assessed by applying doses of 50, 100, 250 and 500 pmol to the abdomen. Control treatments for this experiment included insects treated with only water and females treated by topical application of 100 pmol of [6--Pha--Ala^0 ]Lom--MT--II. After incubation the sex pheromone glands were excised, extracted and analyzed for the amount of pheromone.

[3] = cited from earlier work
[4] = tested on: virgin females of Heliothis virescens; conditions: 100 pmole dose, cited from earlier work
[5] = tested on: isolated cockroach (Leucophaea maderae) hindgut; conditions: values printed with reference numbers; cited from earlier work
[6] = tested on: virgin females of Heliothis virescens; conditions: H. virescens, printed with reference number; cited from earlier work
corn earworm moth H. zea = conditions: cited from earlier work
[7] = tested on: isolated cockroach (Leucophaea maderae) hindgut; assay: Cockroach myotropic bioassay (isolated hindgut); assay type: cell-based; conditions: isolated hindgut, FIG. 2; listed as LPK
Experimental: Leucophaea maderae cockroaches were taken from stock colonies maintained at 27° C. and fed dry dog food ad lib. Cockroach hindguts, free of central nervous system (CNS) tissue, were dissected, immersed in saline, and prepared for recording of myogenic activity as previously described (Holman et al., 1991, ibid). Threshold concentrations were determined for each analogue by adding a known quantity of peptide (dissolved in 0.5 ml bioassay saline) to the bioassay chamber containing the hindgut and observing the response on a Gould 2200S oscillograph recorder. The quantity of the peptide analogues was calculated from the values obtained for Phe and/or Leu in the amino acid analysis. The threshold concentration was defined as the minimum concentration of peptide in the chamber required to evoke an observable change in the frequency (50%) or amplitude of contractions (5%) within 1 min and sustained for 3 min. Threshold concentrations were obtained from five cockroach hindguts on 5 consecutive days for each peptide. Quantitative data for dose-response plots were obtained as previously described (Holman et al., 1991, ibid).

[8] = aqueous solution, 15 min to 3 hr

## CC(C)C[C@H](NC(=O)[C@H](CCCNC(=N)N)NC(=O)[C@@H]1CCCN1C(=O)[C@@H](NC(=O)[C@H](Cc1ccccc1)NC(=O)[C@H](CC(=O)O)NC(=O)CNC(=O)[C@H](CCC(=O)O)NC(=O)[C@H](C)NC(=O)CCCCCc1ccccc1)[C@@H](C)O)C(N)=O [[6--Pha--Ala^0]Lom--MT--II] ({Hexanoyl(6-Ph)}-AEGDFTPRL-NH2)
[1]
  pheromonotropic activity of injected peptide, compared: reduced the activity, compared to Lom--MT--II, at doses up to 6 pmol; also recorded: equivalent to Hez--PBAN at all other doses
[1]; listed as [6--Pha--Ala^0]Lom--MT--II
  pheromonotropic activity of injected peptide, compared: pheromonotropic activity equivalent to Hez--PBAN
[2]; 100 pmol in water, FIG. 9
  time after application at which gland extracts contained significant amounts of pheromone: ≤ 15 min
  time of maximal activity after application: 60 min
[2]; 60 min
  pheromone production, topical 500 pmol/female in 80% acetonitrile: significant amounts of pheromone; also recorded: induced the production of pheromone
  pheromone production, topical 500 pmol/female in DMSO: equivalent amounts of pheromone
  pheromone production, topical 500 pmol/female in water: significant amounts of pheromone
[2]; DMSO carrier, 60 min, FIG. 6
  response to topical application of 5 and 10 pmol doses in DMSO: produced pheromone
[2]; DMSO carrier, FIG. 6
  amount of pheromone at 100 to 1000 pmol/female, topical in DMSO: equivalent amounts of pheromone
[2]; DMSO carrier
  pheromone production after topical application in DMSO: produced pheromone; also recorded: effective in stimulating pheromone production
[2]; topically applied
  concentration giving maximal pheromone stimulation, topical application: 100 picomoles/insect
[2]; water carrier, 60 min, FIG. 8
  dose up to which activity increased in a linear fashion (100-1000 pmol not different): 100 pmol
  doses stimulating significantly more pheromone than just water, topical in water: ≥ 10 pmol

## LSDDMPATPADQEMYRQDPEQIDSRTKYFSPRL-NH2 [HezPBAN, reference compound]
[3]; oral administration
  share of orally administered peptide entering the hemolymph through the gut wall: approximately 5%
[2]; 100 pmol in water, 15-180 min, FIG. 9
  pheromone versus water-only controls, time course, topical in water: no different from controls at any time interval; also recorded: did not contain more pheromone than was present in extracts obtained from insects treated with water only
[2]; 60 min
  pheromone production, topical 500 pmol/female in 80% acetonitrile: no significant activity
  pheromone production, topical 500 pmol/female in DMSO: equivalent amounts of pheromone
  pheromone production, topical 500 pmol/female in water: no significant activity
[2]; DMSO carrier
  amount required to stimulate significant pheromone production relative to [6--Pha--Ala^0 ]Lom--MT--II: ten fold more
  pheromone production after topical application in DMSO: produced pheromone; also recorded: effective in stimulating pheromone production
[2]; DMSO carrier, 60 min, FIG. 6
  dose from which pheromone is produced, topical in DMSO: 50 pmol/female
[2]; DMSO carrier, FIG. 6
  amount of pheromone at 100 to 1000 pmol/female, topical in DMSO: equivalent amounts of pheromone
[2]; water carrier
  pheromone production when applied to the surface of the cuticle in water: failed to stimulate production of significant amounts of pheromone
[4]; 15 min, 1 hr, 2 hr, 3 hr following treatment, listed as PBAN
  pheromone production over control group after topical aqueous application: does not lead to production of statistically different levels of pheromone production
[4]; [8]
  ED50, pheromone production via topical application: Inactive
  Maximal Response via topical application: Inactive
[5]
  Threshold Concentration, myostimulation of the isolated cockroach hindgut: 2,600 pM
[6]
  ED50, pheromone production via injection: 1.0 pmol
  Maximal Response via injection (dose): 5.0 pmol

## pQTSPhe--Thr--Pro--Arg--Leu--NH2 (pQTS-FTPRL-NH2) [octapeptide leucopyrokinin of the cockroach Leucophaea maderae, reference compound]
Corn earworm moth H. zea; data from H. zea
  Maximal Response via injection (dose): 70 pmol
Corn earworm moth H. zea; data from the related corn earworm moth H. zea
  ED50, pheromone production via injection: 5 pmol
[5]
  Threshold Concentration, myostimulation of the isolated cockroach hindgut: 650 pM
[7]
  reversibility of myostimulatory response by saline rinse: immediately reversed by a saline rinse; also recorded: immediately vanished following a saline rinse; also recorded: subsides immediately following a saline rinse

## proctolin
[3]; in vivo
  fate of ingested peptide in the gut: rendered inactive in the gut
